This note sets out measurements from publication PMC9814929, “Control over the fibrillization yield by varying the oligomeric nucleation propensities of self-assembling peptides” (Communications Chemistry, 2020).

Values joined by “and” are separate entries in the source; they are usually repeats but may differ in a detail not shown here. Equal entries are not always repeated. Peptide text beside a SMILES is read from it. A value given as a limit tells only on which side of the number the result lay.

Series [1] is described as follows: Solid-state NMR population profiling (dipolar CP and scalar INEPT spectra) of fibril and non-fibril assemblies. The series is classed as physicochemical. The settings on record: 4 mM, pH 7.4 in PBS, 3 days, 500 MHz, 10 kHz MAS, 280 K; for normalization scaling factor of the dipolar ssNMR spectrum relative to SLP1 (higher factor = lower fibrillization yield): dipolar CP spectra report on rigid 1D nanofibers. The method, then:
As a next step, we hypothesized that higher-resolution methods might disclose further differences in the properties of the SLP assemblies. To examine our hypothesis, we profiled the SLP1–4 assemblies using ssNMR spectroscopy. Using the same conditions (4 mM, pH 7.4 in PBS for 3 days), we acquired the so-called dipolar cross-polarization (CP) ssNMR spectra and so-called scalar INEPT ssNMR spectra on isotopically (^13C, ^15N) labeled SLP assemblies (see “Methods”), which enables to quantify rigid and mobile populations of peptide assemblies in the systems[36] (Fig. 3b). While dipolar signals report on immobilized peptides in 1D assemblies, scalar spectra report on peptides with fast pico-to-nanosecond dynamics, which can either be monomeric peptides or micellar oligomers[16],[32]. We specifically labeled residues in the hydrophobic tail (Val1–2 and Leu6–7) that are responsible for the self-assembly. […] The intensity of the dipolar spectra correlates with the amount of rigid cross-β structure present in the system. We observe that the intensities of dipolar signal of SLP1 is larger than SLP2 (normalization scaling factor of 10, Fig. 3b) and SLP3 (normalization scaling factor of 25, Fig. 3b), which indicate the relative fibrillization yield of SLP1 > SLP2 > SLP3. […]
1D CP[48] and scalar[49] ssNMR experiments to probe rigid and mobile populations, respectively, were acquired at 11.7 T magnetic field (500 MHz (^1H frequency) with 10 kHz magic angle spinning (MAS) and 280 K sample temperature. 2D ^13C–^13C and 2D CαN for peptide assignments were also performed at similar conditions. 2D Ca(N)H experiments for ^15NT1rho relaxation studies were performed at 950 MHz magnetic field strength with 60 kHz. ^13C was detected in the indirect dimension because of spectral overlap in the ^15N dimension. The 2D ^13C–^13C PARIS[37] experiment with the CPMAS CryoProbe[39] to measure intermolecular peptide contacts was performed at 600 MHz and 12 kHz MAS using 700 ms magnetization transfer and a ^1H recoupling amplitude of 6 kHz.

Experiment in series [2]: not given
The source holds these as a separate data set.

The nature of series [3]: Negative-staining TEM and AFM of the mesoscale structure of SLP assemblies. In kind it is physicochemical. As to conditions: 4 mM, pH 7.4 in PBS. The method, then: Next, we investigated the downstream effect of the differences in size of oligomeric particles and β-sheet propensities on the supramolecular self-assembly. One of the pivotal events in defining supramolecular self-assembly is whether nucleation has taken place or not. This can be identified by the mesoscale structures of the assemblies after certain time of incubation, e.g., the formation of one-dimensional (1D) nanostructures is indicative that nucleation has taken place. We used negative-staining transmission electron microscopy (TEM) and atomic force microscopy (AFM) to compare SLPs that were assembled under the same preparation protocol (4 mM, pH 7.4 in phosphate-buffered saline (PBS) for 3 days). We could indeed detect markedly different mesoscale structures in these SLP systems (Figs. 3a and S1). […] Based on these mesoscale evidences, we can deduce that nucleation occurred in SLP1–3, however, not in SLP4.
Peptide assemblies were prepared by dissolving peptide powders in nine volumes of 10 mM sodium hydroxide in 1.5 ml Eppendorf tube. One volume of PBS (10×) was added to make sample of pH 7.4 ± 0.2 and a final concentration of 4 mM. Solution was vortexed for 5 s and incubated statically for 3 days at room temperature before proceeding for measurements.
Samples prepared at 4 mM were diluted tenfold with 1× PBS. Formvar/carbon-coated 400 mesh copper grid (Polysciences Inc.) was placed on top of a droplet of 20 μl of diluted samples. After 2-min incubation, the grid was washed three times with […] filtered mili-Q water and blotted dry with filter paper. Negative staining was performed for 1 min with 2% w/v uranyl acetate in water. Staining solution was blotted off with filter paper. […]
AFM micrographs were recorded using a Bruker MultiMode 8 (ScanAsyst Air silicon nitride probes, spring constant 0.4 N/m, nominal tip radius 2 nm) and post-processed by a plane subtraction and line alignment. Three different spots (one in main text, two in Fig. S3) were measured on the sample to confirm uniformity and get a comprehensive view of the sample’s features.

Experiment in series [4]: not given
The source holds these as a separate data set.

Experiment in series [5]: not given
The source holds these as a separate data set.

For series [6] the following is noted: larger oligomers or early nucleated structures; 1 µM Cy5-SLP in 4 mM unlabeled SLP, PBS pH 7.4; early assembly phase, measured after 5 min of preparatory work.
Description: To validate this hypothesis, we performed fluorescence correlation spectroscopy (FCS) measurements to study the diffusion properties of SLPs in the early phase of self-assembly. […] To explore these size differences in more detail, we fitted the FCS data with a higher-order fitting model. Maximum entropy method (MEM) was chosen to account for the polydispersity of the oligomers. Each condensed fraction was treated as one quasi-continuous distribution, so as to provide the widest data-complying size distribution (least chance of overinterpretation)[34].
The measurement concentration was 4 mM of SLPs in PBS (pH 7.4) of which 1 out of 4000 peptides was labeled with Cy5. The FCS autocorrelation curves were fitted with the maximum entropy method (MEM) for higher-resolution analysis on size distribution, indicated by the solid lines. c The size distribution of SLPs obtained from MEM analysis of the FCS measurements. The dashed line at D = 150 µm^2/s indicates the cut-off size between monomeric (D > 150) and oligomer (D < 150) populations.
Fluorescence time traces were obtained by focusing a 640-nm laser line through a water immersion objective lens (×60 Plan Apo VC, N.A. 1.2, Nikon, Japan) at ~50 µm above the bottom of the glass-bottom 96-well plate (Grainer Bio-one, Frickenhausen, Germany). […] After 5 min of preparatory work, 50 µl of sample was measured with confocal microscope (Nikon C1). […]

The molecule `CC(=O)N[C@H](C(=O)N[C@H](C(=O)N[C@H](C(=O)N[C@H](C(=O)N[C@@H](CC(C)C)C(=O)N[C@@H](CC(C)C)C(=O)N[C@@H](CC(C)C)C(=O)N[C@@H](CCC(=O)O)C(=O)N[C@@H](CCC(=O)O)C(=O)O)[C@@H](C)O)C(C)C)C(C)C)C(C)C` [SLP2] (Ac-VVVTLLLEE-OH) gave a nanofiber length of more than 1000 nm. Besides, in series [1], the “normalization scaling factor of the dipolar ssNMR spectrum relative to SLP1 (higher factor = lower fibrillization yield)” value is reported as 10. In addition, in series [2], the XRD cross-β reflection was 4.7 Å.
Take `CC(=O)N[C@H](C(=O)N[C@H](C(=O)N[C@H](C(=O)N[C@H](C(=O)N[C@@H](CC(C)C)C(=O)N[C@@H](CC(C)C)C(=O)N[C@@H](CC(C)C)C(=O)N[C@@H](CCC(=O)O)C(=O)N[C@@H](CCC(=O)O)C(=O)N[C@@H](CCC(=O)O)C(=O)O)[C@@H](C)O)C(C)C)C(C)C)C(C)C` [SLP4] (Ac-VVVTLLLEEE-OH): the “dipolar ssNMR signals (immobile assemblies)” value in series [1] is given as “absent”. In addition, in series [3] (3 days static at room temperature), the “mesoscale structure of the assemblies (TEM, AFM)” value is listed as “polydisperse zero-dimensional nanostructures”. Moreover, in series [3] (TEM/AFM, 3 days), the “diameter of the assembled nanostructures” value is recorded as 10–60 nm and the “nucleation event deduced from mesoscale structure” value is reported as “no nucleation event has taken place”.
The molecule `CC[C@H](C)[C@H](NC(=O)[C@@H](NC(=O)[C@@H](NC(=O)[C@@H](NC(=O)[C@@H](NC(C)=O)C(C)C)C(C)C)C(C)C)[C@@H](C)O)C(=O)N[C@@H](CC(C)C)C(=O)N[C@@H](CC(C)C)C(=O)N[C@@H](CCC(=O)O)C(=O)N[C@@H](CCC(=O)O)C(=O)N[C@@H](CCC(=O)O)C(=O)O` [SLP3] (Ac-VVVTILLEEE-OH) yielded a nanofiber length of more than 1000 nm. This molecule also gave a nanofiber diameter in series [4] of 10 nm. In addition, in series [1], the “normalization scaling factor of the dipolar ssNMR spectrum relative to SLP1 (higher factor = lower fibrillization yield)” value was 25. This molecule also gave an XRD cross-β reflection in series [2] of 4.7 Å.
`CC[C@H](C)[C@H](NC(=O)[C@@H](NC(=O)[C@@H](NC(=O)[C@@H](NC(=O)[C@@H](NC(C)=O)C(C)C)C(C)C)C(C)C)[C@@H](C)O)C(=O)N[C@@H](CC(C)C)C(=O)N[C@@H](CC(C)C)C(=O)N[C@@H](CCC(=O)O)C(=O)N[C@@H](CCC(=O)O)C(=O)O` [SLP1] (Ac-VVVTILLEE-OH) showed a nanofiber length of more than 1000 nm. The molecule further showed a nanofiber diameter in series [4] of 10 nm. Besides, the oligomer diffusion coefficient, fold smaller than SLP3–4 in series [5] was 10 times and 10 fold. In addition, the “diffusion coefficient of the SLP population (MEM analysis of FCS)” value in series [6] is on record as 0.1–1 µm^2/s. For the same molecule, the XRD cross-β reflection in series [2] is 4.7 Å.
